Here are results for 7 compounds from patent US10351553B2, “Potassium channel modulators” (Cadent Therapeutics, Inc., priority 2017, dated 2019).

The structures appear in SMILES notation. In brackets after ≈: the same amount, converted by molar mass.

The nature of data set [1]: Brain free fraction by equilibrium dialysis in rat brain tissue homogenate. Type of data set: in vitro ADME. Conditions: 10% rat brain tissue homogenate, Tables 2 and 3. On the procedure:
The extent to which compounds modulate SK2 channels in vivo is expressed as % SK2 SC100, which is the ratio of the concentration of the drug free in the brain to the measured potency of the compound on the SK2 channel. It is calculated as follows: CFB=CMB×BFF, where CMB is the concentration of compound measured by liquid chromatography mass spectrometry from brains harvested immediately following tremor recording (Table 1, “Measured Brain Concentration”). CFB is the amount of free compound not complexed with protein and therefore free to interact with the SK2 channel (Table 1, “Calculated Free Brain Concentration”). BFF is average free fraction of compound as measured by equilibrium dialysis in separate experiments (1 uM test concentration incubated in 10% rat brain tissue homogenate for 5 hours at 37° C.) (Table 1, “Brain Free Fraction”). Free drug in brain available to interact with SK2 channels (CFB) is arrived at by multiplying the measured total brain level (CMB) by the average free fraction (BFF).
On the technique in general: In equilibrium dialysis free small molecules cross a membrane that holds back macromolecules.

A short description of data set [2]: Aqueous (kinetic) solubility, shake-flask, phosphate buffer pH 7.4. Type of data set: physicochemical. The conditions noted are these: 23 °C, kinetic from dmso stock, phosphate buffer pH 7.4, 16 hours at room temperature. As for the experimental part:
Aqueous solubility (kinetic solubility) tests of the compounds were performed in phosphate buffer saline (pH 7.4) measured by shake-flask method. In this assay, DMSO stock solution of test compound is added to buffer followed by equilibration (shaking), filtration and determination of soluble amount by HPLC-UV Conditions used in the assay are summarized below.

The target of the next data set is T1, SK2 channels (Homo sapiens, UniProt Q9H2S1).
T1 construct: expressed in transfected cells; host or cells: HEK293
Briefly: Whole-cell patch-clamp of SK2 current in HEK293 cells expressing SK2 channels. Conditions: Table 2; concentration that produces doubling of channel current; averages from later experiments. It counts as cell-based. As for the experimental part: The biological activity was determined as follows. The ionic current through small-conductance Ca^2+-activated K^+ channels (SK channels, subtype 2) was measured using the whole-cell configuration of the patch-clamp technique in a patch-clamp set-up using HEK293 tissue culture cells expressing SK2 channels as described in Hougaard et al., British Journal of Pharmacology 151, 655-665, May 8, 2007, the entire teachings of which are incorporated herein by reference. In one aspect, a compound is defined to be an SK Positive Allosteric Modulator (PAM) if the compound increases current in this assay, for example, if the SC100 value of the compound is less than or equal to 10 μM as determined by this assay. The SC100 value is defined to be the concentration of compound that increases the basal current by 100%.
(Patch clamp records ionic current or voltage across a cell membrane.)

Broadly, the fraction unbound is free concentration divided by total concentration. One may read the solubility (kinetic) as the concentration staying in solution when a stock, usually in DMSO, is diluted into the medium. Consider `Cc1csc(-c2nc(NC3CCC(F)(F)CC3)cc([C@@H](C)O)n2)n1` (single isomer, unassigned) [Compound 6], for which the fraction unbound at 5 h, 1 uM in data set [1] is 0.0431. This compound returned a kinetic solubility at 16 h in data set [2] of 66.7 µg/mL (≈ 188 µM). `COc1cc(NC2CCC(F)(F)CC2)nc(-c2nc(C)cs2)n1` [Compound 3, N-(4,4-difluorocyclohexyl)-6-methoxy-2-(4-methylthiazol-2-yl) pyrimidin-4-amine] showed a free fraction (fraction unbound) at 5 h, 1 uM in data set [1] of 0.0269. Also, the kinetic solubility at 16 h in data set [2] was found to be 70.9 µg/mL (≈ 208 µM).

Consider `Cc1cc(C)n(-c2nc(Nc3ccc(Cl)cc3)cc(N3CCOCC3)n2)n1` [Comparator C, reference compound], for which the fraction unbound at 5 h, 1 uM in data set [1] amounted to 0.0016. For the same compound, the kinetic solubility at 16 h in data set [2] amounted to 1 µg/mL (≈ 2.6 µM). The matching figures for `Cc1csc(-c2nc(NC3CCC(F)(F)CC3)cc([C@H](C)O)n2)n1` (single isomer, unassigned) [Compound 5]: 0.042 and 80.3 µg/mL (≈ 227 µM).

Turning to `FC1(F)CCC(Nc2cc(N3CCOCC3)nc(-n3ccc(C4CC4)n3)n2)CC1` [Compound 7, 2-(3-cyclopropyl-1H-pyrazol-1-yl)-N-(4,4-difluorocyclohexyl)-6-morpholinopyrimidin-4-amine], the fraction unbound at 5 h, 1 uM in data set [1] stood at 0.0155. Also, in data set [2], the kinetic solubility at 16 h worked out at 49.7 µg/mL (≈ 123 µM). For the compound `Cc1ccn(-c2nc(N[C@@H]3CCCC[C@H]3F)cc(N3CCOCC3)n2)n1` [Comparator B, reference compound], the “SK2 potency (SC100)” value at SK2 channels is 5.8 µM.

Turning to `COc1cc(NC2CCC(F)(F)CC2)nc(-n2nc(C)cc2C)n1` [Compound 2, N-(4,4-difluorocyclohexyl)-2-(3,5-dimethyl-1H-pyrazol-1-yl)-6-methoxypyrimidin-4-amine], in data set [1], the free fraction (fraction unbound) at 5 h, 1 uM came to 0.0276. In data set [2], this compound gave a solubility (kinetic) at 16 h of 31 µg/mL (≈ 91.9 µM).
